How the values were obtained:
[1] = target: T1, human B1R receptor (hB1R) (Homo sapiens, UniProt P46663); assay: FLIPR Ca2+ assay (Fluo-4) on CHO K1 cells stably transfected with the human B1R gene; type: cell-based; conditions: CHO-K1; test substance 10 μM; agonist Lys-Des-Arg9-bradykinin 0.5 nM; % inhibition compared to the maximum achievable inhibition
T1 construct: host or cells: CHO K1 cells
T1 sequence (P46663 1-353): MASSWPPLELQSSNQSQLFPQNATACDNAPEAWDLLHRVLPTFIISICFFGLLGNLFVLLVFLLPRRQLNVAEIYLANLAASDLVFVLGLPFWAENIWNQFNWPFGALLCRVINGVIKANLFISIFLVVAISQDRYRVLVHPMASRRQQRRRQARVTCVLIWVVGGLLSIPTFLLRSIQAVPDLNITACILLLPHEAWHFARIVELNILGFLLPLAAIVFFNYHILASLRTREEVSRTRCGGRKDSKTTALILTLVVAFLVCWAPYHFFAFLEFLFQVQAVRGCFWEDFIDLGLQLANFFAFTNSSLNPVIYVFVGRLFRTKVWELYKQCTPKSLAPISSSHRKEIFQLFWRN
In short: (§1)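 CHO K1 cells stably expressing human or rat B1R, Fluo-4 loaded, read by FLIPR (Ex 488/Em 540, peak fluorescence). Compound at 10 μM gives % activation vs agonist. After 10 min, agonist added (human: Lys-Des-Arg9-bradykinin 0.5 nM; rat: Des-Arg9-bradykinin 100 nM); % inhibition relative to maximal achievable inhibition.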

[2] = target: T2, B1R receptor of rats (rB1R) (Rattus norvegicus, UniProt P97583); assay: FLIPR Ca2+ assay (Fluo-4) on CHO K1 cells stably transfected with the B1R gene of rats; type: cell-based; conditions: CHO-K1; test substance 10 μM; agonist Des-Arg9-bradykinin 100 nM; % inhibition compared to the maximum achievable inhibition
T2 construct: host or cells: CHO K1 cells
T2 sequence (P97583 1-337): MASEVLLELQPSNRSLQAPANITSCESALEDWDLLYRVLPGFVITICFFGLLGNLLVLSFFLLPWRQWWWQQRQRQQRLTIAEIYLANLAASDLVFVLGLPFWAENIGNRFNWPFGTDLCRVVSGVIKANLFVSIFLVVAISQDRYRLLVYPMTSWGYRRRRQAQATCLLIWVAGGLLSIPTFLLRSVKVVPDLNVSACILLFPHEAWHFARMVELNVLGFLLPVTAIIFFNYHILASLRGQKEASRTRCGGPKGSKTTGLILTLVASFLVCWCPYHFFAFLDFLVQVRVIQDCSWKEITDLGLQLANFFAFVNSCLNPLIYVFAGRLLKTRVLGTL
In short: as §1

`Cc1cc(C)c(S(=O)(=O)N2CCCCC2COCC(=O)N2CCn3cccc3C2c2ccc(Cl)nc2)c(C)c1` (centres unmarked) [(36), 1-(1-(6-chloropyridin-3-yl)-3,4-dihydropyrrolo[1,2-a]pyrazin-2(1H)-yl)-2-((1-(mesitylsulfonyl)piperidin-2-yl)methoxy)ethanone] gave an inhibition at 10 µM [1] of 99% and an inhibition at 10 µM [2] of 99%.

`Cc1cc(S(=O)(=O)N2CCCCC2CCC(=O)N2CCn3c(CCCN4CCCC4)ccc3C2)c(C)cc1Cl` (centres unmarked) [(18), 3-(1-(4-chloro-2,5-dimethylphenylsulfonyl)piperidin-2-yl)-1-(6-(3-(pyrrolidin-1-yl)propyl)-3,4-dihydropyrrolo[1,2-a]pyrazin-2(1H)-yl)propan-1-one] gave an inhibition at 10 µM [1] of 90% and an inhibition at 10 µM [2] of 99%.

Compound `COc1cc(C)c(S(=O)(=O)N2CCCCC2COCC(=O)N2CCn3c(ccc3-c3cccnc3)C2)c(C)c1` (centres unmarked) [(89), 2-((1-(4-Methoxy-2,6-dimethylphenylsulfonyl)piperidin-2-yl)methoxy)-1-(6-(pyridin-3-yl)-3,4-dihydropyrrolo[1,2-a]pyrazin-2(1H)-yl)ethanone] has an inhibition at 10 µM [1] of 99% and an inhibition at 10 µM [2] of 96%.

Compound `COc1cc(C)c(S(=O)(=O)N2CCCCC2CCC(=O)N2CCn3c(CCc4ccncc4)ccc3C2)c(C)c1` (centres unmarked) [(108), 3-(1-(4-Methoxy-2,6-dimethylphenylsulfonyl)piperidin-2-yl)-1-(6-(2-(pyridin-4-yl)ethyl)-3,4-dihydropyrrolo[1,2-a]pyrazin-2(1H)-yl)propan-1-one] has an inhibition at 10 µM [1] of 92% and an inhibition at 10 µM [2] of 99%.

`Cc1cc(C)c(S(=O)(=O)N2CCCCC2COCC(=O)N2CCn3c(CN4CCOCC4)ccc3C2c2ccccc2)c(C)c1` (centres unmarked) [(49), 2-((1-(mesitylsulfonyl)piperidin-2-yl)methoxy)-1-(6-(morpholinomethyl)-1-phenyl-3,4-dihydropyrrolo[1,2-a]pyrazin-2(1H)-yl)ethanone] gave an inhibition at 10 µM [1] of 103% and an inhibition at 10 µM [2] of 103%.

`COc1cc(C)c(S(=O)(=O)N2CCCCC2CCC(=O)N2CCn3c(CCc4cccnc4)ccc3C2)c(C)c1` (centres unmarked) [(102), 3-(1-(4-Methoxy-2,6-dimethylphenylsulfonyl)piperidin-2-yl)-1-(6-(2-(pyridin-3-yl)ethyl)-3,4-dihydropyrrolo[1,2-a]pyrazin-2(1H)-yl)propan-1-one] gave an inhibition at 10 µM [1] of 86% and an inhibition at 10 µM [2] of 101%.

`Cc1cc(C)c(S(=O)(=O)N2CCCCC2COCC(=O)N2CCn3c(CN4CCCCC4)ccc3C2c2ccccc2)c(C)c1` (centres unmarked) [(48), 2-((1-(mesitylsulfonyl)piperidin-2-yl)methoxy)-1-(1-phenyl-6-(piperidin-1-yl-methyl)-3,4-dihydropyrrolo[1,2-a]pyrazin-2(1H)-yl)ethanone] gave an inhibition at 10 µM [1] of 103% and an inhibition at 10 µM [2] of 103%.

`O=C(CC1CCCCN1S(=O)(=O)c1cccc(C(F)(F)F)c1)N1CCn2c(Cc3cccnc3)ccc2C1` (centres unmarked) [(97), 1-(6-(Pyridin-3-ylmethyl)-3,4-dihydropyrrolo[1,2-a]pyrazin-2(1H)-yl)-2-(1-(3-(trifluoromethyl)phenylsulfonyl)piperidin-2-yl)ethanone] showed an inhibition at 10 µM [1] of 80% and an inhibition at 10 µM [2] of 103%.

`O=C(CC1CCCCN1S(=O)(=O)c1cccc(C(F)(F)F)c1)N1CCn2c(Cc3ccncc3)ccc2C1` (centres unmarked) [(90), 1-(6-(Pyridin-4-ylmethyl)-3,4-dihydropyrrolo[1,2-a]pyrazin-2(1H)-yl)-2-(1-(3-(trifluoromethyl)phenylsulfonyl)piperidin-2-yl)ethanone] gave an inhibition at 10 µM [1] of 25% and an inhibition at 10 µM [2] of 47%.

With `CCCCC1c2ccc(CN(C)C)n2CCN1C(=O)COCC1CCCCN1S(=O)(=O)c1c(C)cc(OC)cc1C` (centres unmarked) [(67), 1-(1-butyl-6-((dimethylamino)methyl)-3,4-dihydropyrrolo[1,2-a]pyrazin-2(1H)-yl)-2-((1-(4-methoxy-2,6-dimethylphenylsulfonyl)piperidin-2-yl)methoxy)ethanone] the inhibition at 10 µM [1] was 102% and the inhibition at 10 µM [2] was 100%.

`COc1cc(C)c(S(=O)(=O)N2CCCCC2COCC(=O)N2CCn3c(CN(C)C)ccc3C2Cc2ccccc2)c(C)c1` (centres unmarked) [(65), 1-(1-benzyl-6-((dimethylamino)methyl)-3,4-dihydropyrrolo[1,2-a]pyrazin-2(1H)-yl)-2-((1-(4-methoxy-2,6-dimethylphenylsulfonyl)piperidin-2-yl)methoxy)ethanone] gave an inhibition at 10 µM [1] of 102% and an inhibition at 10 µM [2] of 100%.

For `CCC1c2cccn2CCN1C(=O)CCC1CCCCN1S(=O)(=O)c1c(C)cc(OC)cc1C` (centres unmarked) [(85), 1-(1-ethyl-3,4-dihydropyrrolo[1,2-a]pyrazin-2(1H)-yl)-3-(1-(4-methoxy-2,6-dimethylphenylsulfonyl)piperidin-2-yl)propan-1-one], the inhibition at 10 µM [1] was 95% and the inhibition at 10 µM [2] was 98%.

Compound `COc1cc(C)c(S(=O)(=O)N2CCCCC2COCC(=O)N2CCn3cccc3C2CCc2ccccc2)c(C)c1` (centres unmarked) [(60), 2-((1-(4-methoxy-2,6-dimethylphenylsulfonyl)piperidin-2-yl)methoxy)-1-(1-phenethyl-3,4-dihydropyrrolo[1,2-a]pyrazin-2(1H)-yl)ethanone] has an inhibition at 10 µM [1] of 87% and an inhibition at 10 µM [2] of 102%.

For `COc1cc(C)c(S(=O)(=O)N2CCCCC2COCC(=O)N2CCn3cccc3C2c2ccc(Cl)nc2)c(C)c1` (centres unmarked) [(22), 1-(1-(6-chloropyridin-3-yl)-3,4-dihydropyrrolo[1,2-a]pyrazin-2(1H)-yl)-2-((1-(4-methoxy-2,6-dimethylphenylsulfonyl)piperidin-2-yl)methoxy)ethanone], the inhibition at 10 µM [1] was 102% and the inhibition at 10 µM [2] was 99%.

`COc1cc(C)c(S(=O)(=O)N2CCCCC2CCCC(=O)N2CCn3c(CCc4ccncc4)ccc3C2)c(C)c1` (centres unmarked) [(109), 4-(1-(4-Methoxy-2,6-dimethylphenylsulfonyl)piperidin-2-yl)-1-(6-(2-(pyridin-4-yl)ethyl)-3,4-dihydropyrrolo[1,2-a]pyrazin-2(1H)-yl)butan-1-one] was tested, and the inhibition at 10 µM [1] was 95% and the inhibition at 10 µM [2] was 99%.

`COc1cc(C)c(S(=O)(=O)N2CCCCC2COCC(=O)N2CCn3c(CN4CCCCC4)ccc3C2c2ccccc2)c(C)c1` (centres unmarked) [(63), 2-((1-(4-methoxy-2,6-dimethylphenylsulfonyl)piperidin-2-yl)methoxy)-1-(1-phenyl-6-(piperidin-1-ylmethyl)-3,4-dihydropyrrolo[1,2-a]pyrazin-2(1H)-yl)ethanone] was tested, and the inhibition at 10 µM [1] was 104% and the inhibition at 10 µM [2] was 103%.

Compound `COc1cc(C)c(S(=O)(=O)N2CCCCC2COCC(=O)N2CCn3c(CCc4cccnc4)ccc3C2)c(C)c1` (centres unmarked) [(101), 2-((1-(4-Methoxy-2,6-dimethylphenylsulfonyl)piperidin-2-yl)methoxy)-1-(6-(2-(pyridin-3-yl)ethyl)-3,4-dihydropyrrolo[1,2-a]pyrazin-2(1H)-yl)ethanone] has an inhibition at 10 µM [1] of 100% and an inhibition at 10 µM [2] of 98%.

Compound `COc1cc(C)c(S(=O)(=O)N2CCCCC2COCC(=O)N2CCn3cc(Cc4ccncc4)nc3C2)c(C)c1` (centres unmarked) [(120), 2-((1-(4-Methoxy-2,6-dimethylphenylsulfonyl)piperidin-2-yl)methoxy)-1-(2-(pyridin-4-ylmethyl)-5,6-dihydroimidazo[1,2-a]pyrazin-7(8H)-yl)ethanone] has an inhibition at 10 µM [1] of 99% and an inhibition at 10 µM [2] of 105%.

With `Cc1cc(C)c(S(=O)(=O)N2CCCCC2COCC(=O)N2CCn3cccc3C2c2cccnc2)c(C)c1` (centres unmarked) [(35), 2-((1-(mesitylsulfonyl)piperidin-2-yl)methoxy)-1-(1-(pyridin-3-yl)-3,4-dihydropyrrolo[1,2-a]pyrazin-2(1H)-yl)ethanone] the inhibition at 10 µM [1] was 100% and the inhibition at 10 µM [2] was 97%.

With `O=C(CC1CCCCN1S(=O)(=O)c1cccc(C(F)(F)F)c1)N1CCn2c(CCc3cccnc3)ccc2C1` (centres unmarked) [(98), 1-(6-(2-(Pyridin-3-yl)ethyl)-3,4-dihydropyrrolo[1,2-a]pyrazin-2(1H)-yl)-2-(1-(3-(trifluoromethyl)phenylsulfonyl)piperidin-2-yl)ethanone] the inhibition at 10 µM [1] was 90% and the inhibition at 10 µM [2] was 90%.

`O=C(CC1CCCCN1S(=O)(=O)c1cccc(C(F)(F)F)c1)N1CCn2c(CCCN3CCCC3)ccc2C1` (centres unmarked) [(17), 1-(6-(3-(pyrrolidin-1-yl)propyl)-3,4-dihydropyrrolo[1,2-a]pyrazin-2(1H)-yl)-2-(1-(3-(trifluoromethyl)phenylsulfonyl)piperidin-2-yl)ethanone] was tested, and the inhibition at 10 µM [1] was 50% and the inhibition at 10 µM [2] was 75%.

`O=C(CC1CCCCN1S(=O)(=O)c1cccc(C(F)(F)F)c1)N1CCn2c(ccc2-c2cccnc2)C1` (centres unmarked) [(93), 1-(6-(Pyridin-3-yl)-3,4-dihydropyrrolo[1,2-a]pyrazin-2(1H)-yl)-2-(1-(3-(trifluoromethyl)phenylsulfonyl)piperidin-2-yl)ethanone] showed an inhibition at 10 µM [1] of 18% and an inhibition at 10 µM [2] of 55%.
